Laboratory results: patent US20180155429A1, “TREATMENT OF PD-L1 POSITIVE LUNG CANCER USING AN ANTI-PD-1 ANTIBODY” (Bristol-Myers Squibb Company, priority 2015, published 2018)

Key:
PD-1 = target: T1, PD-1 (Homo sapiens, UniProt Q15116); conditions: 15 subjects, 0.3 mg/kg to 10 mg/kg, across all doses, cited from earlier work
T1 construct: Receptor-occupancy data from 15 subjects who received 0.3 mg/kg to 10 mg/kg dosing with nivolumab indicate that PD-1 occupancy appears to be dose-independent; endogenous in cells

[1] = cited from earlier work
[2] = Randomized phase III study of nivolumab versus docetaxel, exposure and safety; assay type: in vivo, human; conditions: for Treatment-related deaths: at DBL, treated pts
Procedure: (§1) 582 patients were randomized to receive either nivolumab or docetaxel. 292 were randomized to receive nivolumab, and of these, 287 actually received nivolumab. 290 were randomized to receive docetaxel, and of these, 268 actually received docetaxel. Patients were treated with nivolumab at 3 mg/kg IV Q2W until they experienced a progressive disease or unacceptable toxicity. Patients were treated with docetaxel at 75 mg/m^2 IV Q3W until progressive disease or unacceptable toxicity occurred. The primary end point of the study was overall survival (OS). The secondary endpoints of the study were overall response rate (ORR) (Per RECIST v1.1 criteria as determined by the investigator), progression free survival (PFS) (Per RECIST v1.1 criteria as determined by the investigator), efficacy by tumor PD-L1 expression, and disease-related symptom improvement rate by week 12. An overview of the trial can be seen in FIGS. 1A and 1B.

[3] = tested on: advanced non-squamous (non-SQ) NSCLC; experiment: Randomized phase III study of nivolumab versus docetaxel, efficacy (OS, PFS, ORR, DOR, also by tumor PD-L1 expression); assay type: in vivo, human; conditions: for Best overall response CR / Best overall response PD / Best overall response PR / Best overall response SD / Best overall response Unable to determine: Nivo N = 292, Doc N = 290; for mOS: PD-L1+ patients; for 1-year PFS rate / median OS / 1-year OS rate: all randomized pts; for 1-year OS rate: nivolumab 3 mg/kg IV Q2W, docetaxel 75 mg/m^2 IV Q3W; for Median time to response: all responders (NIVO, n = 56; DOC, n = 36); for Ongoing response: at last tumor assessment before censoring, responders
Procedure: as §1
All patients had either stage IIIB or stage IV non-squamous NSCLC and 1 prior PT-DC treatment. Prior maintenance therapy with pemetrexed, bevacizumab or erlotinib was allowed (and was not considered a separate line of therapy). Prior TKI therapy was allowed for a known ALK translocation or EGFR mutation. The ECOG PS was 0-1. Patients were stratified by prior maintenance therapy and line of therapy (second-vs third-line)
In this example, ALK means anaplastic lymphoma kinase; ECOG PS means Eastern Cooperative Oncology Group performance status; EGFR means epidermal growth factor receptor; IV means intravenous; LCSS means Lung Cancer Symptom Scale; ORR means objective response rate; OS=overall survival; PFS=progression-free survival; PD=progressive disease; and TKI means tyrosine kinase inhibitor.
The PD-L1 expression was measured for the patients. The DAKO PD-L1 Assay Analytical Validation and Clinical Sample Testing is described in Table 3.

[4] = all randomized pts (Nivo N = 292, Doc N = 290), RECIST v1.1, investigator

T1 sequence (Q15116 25-288): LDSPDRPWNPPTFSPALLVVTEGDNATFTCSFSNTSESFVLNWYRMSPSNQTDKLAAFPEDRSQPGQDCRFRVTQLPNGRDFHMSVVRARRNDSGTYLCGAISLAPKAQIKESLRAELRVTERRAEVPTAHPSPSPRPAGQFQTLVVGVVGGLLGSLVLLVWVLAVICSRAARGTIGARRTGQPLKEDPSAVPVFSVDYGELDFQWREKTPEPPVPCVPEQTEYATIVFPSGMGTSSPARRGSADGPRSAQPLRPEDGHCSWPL

Row | Compound | Treatment-related deaths [2] | Best overall response CR [3] | Best overall response PD [3] | Best overall response PR [3] | Best overall response SD [3] | Best overall response Unable to determine [3] | mOS ([3]; 1% expression level) [months] | mOS ([3]; 5% expression level) [months] | mOS ([3]; 10% expression level) [months] | Median DOR ([3]; PD-L1 Negative (<1%)) [mos] | ORR ([3]; PD-L1 Negative (<1%)) [%] | Median DOR ([3]; PD-L1 Negative (<5%)) [mos] | ORR ([3]; PD-L1 Negative (<5%)) [%] | Median DOR ([3]; PD-L1 Negative (<10%)) [mos] | ORR ([3]; PD-L1 Negative (<10%)) [%] | Median DOR ([3]; PD-L1 Not quantifiable) [mos] | ORR ([3]; PD-L1 Not quantifiable) [%] | Median DOR ([3]; PD-L1 Positive (≥1%)) [mos] | ORR ([3]; PD-L1 Positive (≥1%)) [%] | Median DOR ([3]; PD-L1 Positive (≥5%)) [mos] | also measured
1 | nivolumab | 0^8 | (1.4) % | (44) % | (18) % | (25) % | (11) % | 17.2 | 18.2 | 19.4 | 18.3 | 9.3 | 18.3 | 10 | 18.3 | 11 | 7.3 | 13 | 16.0 | 31 | 16.0 | mean plateau PD-1 occupancy (PD-1; range 59% to 81%): 72%; mean PD-1 occupancy rate (PD-1; range 70% to 97%): 85%; tolerated dose ([1]; given intravenously every 2 weeks): up to 10 mg/kg; maximum tolerated dose (MTD) ([1]; nivolumab monotherapy every two weeks, MTD not reached): > 10 mg/kg; safety profile ([2]; in vivo): favorable vs docetaxel; Estimated odds ratio (95% CI) for ORR ([3]; Nivo vs Doc, P-value 0.0246): 1.7 (1.1, 2.6); ORR ([3]; PD-L1 Positive (≥5%)): 36%; Median DOR ([3]; PD-L1 Positive (≥10%)): 16.0 mos; ORR ([3]; PD-L1 Positive (≥10%)): 37%; 1-year PFS rate [3]: 19%; median OS [3]: 12.2 months; ORR [3, 4]: 19%; 1-year OS rate [3]: 51%; Median DOR ([3]; all responders): 17.2 mos; Median time to response [3]: 2.1 mos; Ongoing response [3]: (52) %; reduction in risk of death ([3]; nivolumab in comparison to docetaxel): 27%; HR (risk of death) ([3]; nivolumab in comparison to docetaxel, P=0.0015): 0.73
2 | CC(=O)O[C@@]12CO[C@@H]1C[C@H](O)[C@@]1(C)C(=O)[C@H](O)C3=C(C)[C@@H](OC(=O)[C@H](O)[C@@H](NC(=O)OC(C)(C)C)c4ccccc4)C[C@@](O)([C@@H](OC(=O)c4ccccc4)[C@H]21)C3(C)C [docetaxel, reference compound] | 0.4^9 | (0.3) % | (29) % | (12) % | (42) % | (16) % | 9.0 | 8.1 | 8.0 | 5.6 | 15 | 5.6 | 14 | 5.6 | 14 | 6.6 | 9.1 | 5.6 | 12 | 5.6 | Treatment-related select AE: Hypothyroidism ([2]; human, in vivo): 0%; Treatment-related select AE: Pneumonitis ([2]; human, in vivo): 0.4%; ORR ([3]; PD-L1 Positive (≥5%)): 13%; Median DOR ([3]; PD-L1 Positive (≥10%)): 5.6 mos; ORR ([3]; PD-L1 Positive (≥10%)): 13%; 1-year PFS rate [3]: 8.1%; median OS [3]: 9.4 months; ORR [3, 4]: 12%; 1-year OS rate [3]: 39%; Median DOR ([3]; all responders): 5.6 mos; Median time to response [3]: 2.6 mos; Ongoing response [3]: (14) %
